Patent US6019988A, “Methods and compositions for enhancing skin permeation of drugs using permeation enhancers, when drugs and/or permeation enhancers are unstable in combination during long-term storage” (priority 1996, dated 2000)

How the values were obtained:
[1] = Stability in pharmaceutical solvents / excipients at 30 and 40 °C
[2] = not told
[3] = Solubility in water- or oil-based formulations; type: physicochemical
[4] = Plasma concentration after topical application to hairless rats; type: in vivo, hairless rat

CC(=C/C(=O)O)/C(=C/c1ccc2cc3c(cc2c1)C(C)(C)CCC3(C)C)c1cccc(C(=O)O)c1 [BMS-188184, (2Z,4Z)-3-methyl-4-(3-carboxyphenyl)-5-[(1,2,3,4-tetrahydro-1,1,4,4-tetramethyl)-6-anthracenyl]-2,4-pentadienoic acid]
shelf life in these solvents ([1]; 30° C., propylene glycol, Transcutol, ethanol SD-40, PEG-8, water): less than 10 days | stability in various pharmaceutical solvents ([1]; propylene glycol, Transcutol, ethanol SD-40, PEG-8, water, 30° C. and 40° C.): poor | long-term (storage) stability in formulations / with permeation enhancers [2]: stable in GEAHLENE base containing mineral oil and in petrolatum ointment containing fatty acid esters

CC(=C/C(=O)O)/C(=C/c1ccc2cc3c(cc2c1)C(C)(C)CCC3(C)C)c1cccc(C(=O)O)c1 [BMS-188184-01, (2Z,4Z)-3-methyl-4-(3-carboxyphenyl)-5-[(1,2,3,4-tetrahydro-1,1,4,4-tetramethyl)-6-anthracenyl]-2,4-pentadienoic acid]
solubility in water-based or oil-based formulations [3]: virtually insoluble

CC(=C/C(=O)O)/C(=C/c1ccc2cc3c(cc2c1)C(C)(C)CCC3(C)C)c1cccc(C(=O)O)c1 [BMS-188184-02, (2Z,4Z)-3-methyl-4-(3-carboxyphenyl)-5-[(1,2,3,4-tetrahydro-1,1,4,4-tetramethyl)-6-anthracenyl]-2,4-pentadienoic acid]
concentration of drug in plasma ([4]; by 6 hours after topical application): below the limit of detection | Cmax ([4]; rat, plasma, topical or ocular, dual system 2% ointment + SLS cream, single topical dose, read-out: peak plasma concentrations): 2400 ng/mL | Tmax ([4]; rat, plasma, topical or ocular, dual system 2% ointment + SLS cream, single topical dose, read-out: time of peak plasma concentrations): 2 h | solubility in water-based or oil-based formulations [3]: soluble

CC(=C/C(=O)O)/C(=C/c1ccc2cc3c(cc2c1)C(C)(C)CCC3(C)C)c1cccc(C(=O)O)c1 [BMS-188184-05]
remaining at 240 h ([1]; pharmaceutical solvents): < 90%
